Patent US10208044B2, “ACC inhibitors and uses thereof” (Gilead Apollo, LLC, priority 2013, dated 2019)

Experiments:
ACC2 [1] = target: ACC2 (Homo sapiens (Human), UniProt O00763); assay: in vitro ACC2 inhibition assay (ADP-Glo); format: biochemical; details: 5 nM ACC2, 20 μM ATP, 20 μM acetyl-CoA
Protocol: An exemplary procedure for the in vitro ACC inhibition assay, which can be used to determine the inhibitory action of compounds of the invention toward either ACC1 or ACC2, follows. The ADP-Glo™ Kinase Assay kit from Promega is used. The ADP-Glo™ Kinase Assay is a luminescent ADP detection assay to measure enzymatic activity by quantifying the amount of ADP produced during an enzyme reaction. The assay is performed in two steps; first, after the enzyme reaction, an equal volume of ADP-Glo™ Reagent is added to terminate the reaction and deplete the remaining ATP. Second, the Kinase Detection Reagent is added to simultaneously convert ADP to ATP and allow the newly synthesized ATP to be measured using a luciferase/luciferin reaction. Luminescence can be correlated to ADP concentrations by using an […]. The detailed procedure is as follows. 50 μL of the compound being tested (600 uM in DMSO) is added to a 384-well dilution plate. The compound is diluted 1:3 in succession in DMSO for each row for 11 wells. 0.5 μL ACC2 working solution is added to 384-well white Optiplate assay plate. 0.5 μL diluted compound solution in each column from step 2 is added to the assay plate, each row containing 2 replicates. For the last 2 rows, add 0.5 μL negative control (DMSO) in one row and 0.5 μL positive control (compound I-97) in the other. The plates are incubated at room temperature for 15 minutes. […] Plates are incubated at room temperature for 40 minutes, then read on a Perkin Elmer EnVision 2104 plate reader for luminescence as Relative Light Units (RLU).
Data for each concentration, as well as the positive and negative controls are averaged, and the standard deviation calculated. Percent inhibition is calculated by the formula: 100× (average negative control−compound)/(average negative control−average positive control). The IC50 for each compound is calculated by fitting the data with a non-linear regression equation: Y=Bottom+(Top-Bottom)/(1+10^((Log IC50-X)*HillSlope)), where X is the log of compound concentration and Y is percent inhibition. […]

ACC1 = ACC1 isolated from rat, mouse, monkey and human; cited from earlier work
ACC2 [2] = details: ACC2 isolated from rat, mouse, monkey and human; cited from earlier work

Chain of ACC2 (Homo sapiens (Human), UniProt O00763) (O00763 whole entry, species assumed): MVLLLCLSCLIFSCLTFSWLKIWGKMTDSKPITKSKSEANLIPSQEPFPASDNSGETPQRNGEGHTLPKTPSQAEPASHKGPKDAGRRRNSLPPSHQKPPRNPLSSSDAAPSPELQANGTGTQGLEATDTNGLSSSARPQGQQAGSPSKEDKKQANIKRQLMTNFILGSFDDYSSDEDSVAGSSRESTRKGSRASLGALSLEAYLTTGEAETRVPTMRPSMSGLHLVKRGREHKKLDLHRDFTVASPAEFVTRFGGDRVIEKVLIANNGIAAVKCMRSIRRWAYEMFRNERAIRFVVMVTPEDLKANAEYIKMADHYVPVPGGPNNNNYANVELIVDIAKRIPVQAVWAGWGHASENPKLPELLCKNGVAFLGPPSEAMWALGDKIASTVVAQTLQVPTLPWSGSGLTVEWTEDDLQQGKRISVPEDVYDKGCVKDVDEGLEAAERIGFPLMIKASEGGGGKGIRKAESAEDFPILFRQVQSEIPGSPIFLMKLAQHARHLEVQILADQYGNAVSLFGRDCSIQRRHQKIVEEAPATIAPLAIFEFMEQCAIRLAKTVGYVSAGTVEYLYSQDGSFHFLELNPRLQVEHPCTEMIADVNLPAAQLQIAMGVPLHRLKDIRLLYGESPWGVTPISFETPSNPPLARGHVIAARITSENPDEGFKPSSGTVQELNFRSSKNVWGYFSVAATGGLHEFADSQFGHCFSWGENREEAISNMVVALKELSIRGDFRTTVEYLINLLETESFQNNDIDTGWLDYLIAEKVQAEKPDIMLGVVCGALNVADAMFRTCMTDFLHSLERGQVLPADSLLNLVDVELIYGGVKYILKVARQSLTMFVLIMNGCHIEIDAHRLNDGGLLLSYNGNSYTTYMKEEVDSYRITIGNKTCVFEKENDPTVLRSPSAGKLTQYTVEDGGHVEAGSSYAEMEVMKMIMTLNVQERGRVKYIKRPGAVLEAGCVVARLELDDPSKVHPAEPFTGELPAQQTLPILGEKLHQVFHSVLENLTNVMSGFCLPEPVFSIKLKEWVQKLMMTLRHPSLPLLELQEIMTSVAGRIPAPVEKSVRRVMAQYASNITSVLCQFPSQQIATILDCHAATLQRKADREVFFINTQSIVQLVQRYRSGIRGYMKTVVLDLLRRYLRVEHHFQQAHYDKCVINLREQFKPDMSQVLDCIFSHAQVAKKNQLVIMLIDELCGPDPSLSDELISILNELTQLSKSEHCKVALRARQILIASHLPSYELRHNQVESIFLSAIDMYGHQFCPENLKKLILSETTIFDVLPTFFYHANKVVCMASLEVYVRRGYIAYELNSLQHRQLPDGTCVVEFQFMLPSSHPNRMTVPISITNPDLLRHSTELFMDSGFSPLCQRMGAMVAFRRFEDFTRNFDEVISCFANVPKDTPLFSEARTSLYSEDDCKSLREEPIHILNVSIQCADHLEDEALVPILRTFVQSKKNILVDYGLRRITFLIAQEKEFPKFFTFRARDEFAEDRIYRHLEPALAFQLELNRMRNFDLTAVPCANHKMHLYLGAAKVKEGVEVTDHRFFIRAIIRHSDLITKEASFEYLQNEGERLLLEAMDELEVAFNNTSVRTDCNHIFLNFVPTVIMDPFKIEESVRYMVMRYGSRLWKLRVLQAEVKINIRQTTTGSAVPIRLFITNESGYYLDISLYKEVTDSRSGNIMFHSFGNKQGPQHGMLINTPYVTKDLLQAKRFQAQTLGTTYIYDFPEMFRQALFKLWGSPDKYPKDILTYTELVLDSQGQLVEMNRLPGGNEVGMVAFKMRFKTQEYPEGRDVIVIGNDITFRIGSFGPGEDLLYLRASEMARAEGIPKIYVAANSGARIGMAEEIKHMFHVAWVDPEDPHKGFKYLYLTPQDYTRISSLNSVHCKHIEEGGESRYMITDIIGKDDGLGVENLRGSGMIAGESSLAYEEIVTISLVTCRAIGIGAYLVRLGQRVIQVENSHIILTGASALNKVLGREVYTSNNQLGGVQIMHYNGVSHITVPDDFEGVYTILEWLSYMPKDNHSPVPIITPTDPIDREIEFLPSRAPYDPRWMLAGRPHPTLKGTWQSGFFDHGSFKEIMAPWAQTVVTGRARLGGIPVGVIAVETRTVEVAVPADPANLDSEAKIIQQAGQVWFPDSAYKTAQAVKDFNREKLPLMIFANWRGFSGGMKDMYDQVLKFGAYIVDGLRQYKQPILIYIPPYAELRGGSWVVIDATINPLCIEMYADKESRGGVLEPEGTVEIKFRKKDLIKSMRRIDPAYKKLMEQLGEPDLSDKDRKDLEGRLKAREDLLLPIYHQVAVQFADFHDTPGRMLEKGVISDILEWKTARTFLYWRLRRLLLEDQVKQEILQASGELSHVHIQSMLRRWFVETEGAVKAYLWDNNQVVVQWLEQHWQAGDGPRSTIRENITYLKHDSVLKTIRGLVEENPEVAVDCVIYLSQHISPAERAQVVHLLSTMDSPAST

Row | IC50 (ACC2 [1]) | SMILES | IC50 (ACC1) | IC50 (ACC2 [2])
1 | 20 to 50 µM | COc1ccc(F)cc1[C@H](Cn1c(=O)n(C(C)(C)C(=O)O)c(=O)c2cc(Br)ccc21)OC1CCOCC1 [Compound I-30, (R)-2-(6-bromo-1-(2-(5-fluoro-2-methoxyphenyl)-2-((tetrahydro-2H-pyran-4-yl)oxy)ethyl)-2,4-dioxo-1,2-dihydroquinazolin-3(4H)-yl)-2-methylpropanoic acid] |  | 
2 | 20 to 50 µM | COc1ccc(F)cc1[C@H](Cn1c(=O)n(C(C)(C)C(N)=O)c(=O)c2cc(-c3ncco3)ccc21)OC1CCOCC1 [Compound I-29, (R)-2-(1-(2-(5-fluoro-2-methoxyphenyl)-2-((tetrahydro-2H-pyran-4-yl)oxy)ethyl)-6-(oxazol-2-yl)-2,4-dioxo-1,2-dihydroquinazolin-3(4H)-yl)-2-methylpropanamide] |  | 
3 | 20 to 50 µM | COc1ccc(F)cc1[C@H](Cn1c(=O)n(C(C)(C)C(=O)O)c(=O)c2cc(-c3ncco3)ccc21)OC1CCOCC1 [Compound I-28, (R)-2-(1-(2-(5-fluoro-2-methoxyphenyl)-2-((tetrahydro-2H-pyran-4-yl)oxy)ethyl)-6-(oxazol-2-yl)-2,4-dioxo-1,2-dihydroquinazolin-3(4H)-yl)-2-methylpropanoic acid] |  | 
4 |  | O=C(c1c2ccccc2cc2ccccc12)N1CCC(N2CCC[C@@H](C(=O)N3CCOCC3)C2)CC1 [CP-640186] | ~0.06 µM | ~0.06 µM
